# Assay: Loss of MK-7 on direct compression into tablets with calcium or magnesium excipients
# Type: physicochemical
# Details: directly compressed with excipients such as calcium or magnesium
# Source text: However, vitamins K1 and K2 degrade when formulated in a conventional dosage form, such as a tablet, in the presence of mineral salts, in particular calcium or magnesium salts. Moreover, during formulation of the dosage form, there is a still yet further opportunity for degradation. When directly compressed along with some excipients in a tablet such as calcium or magnesium, a serious reduction in the amount of MK-7 present after tableting can be observed, such as up to 30% reduction in MK-7. As MK-7 is expensive, that is not an acceptable loss on formulation. The MK-7 degradation appears to be accelerated in the presence of calcium or magnesium. As calcium and magnesium are valuable minerals, it is desirable to be able to formulate vitamins in general and MK-7 in particular with calcium and magnesium.
compound,measurement,value
CC(C)=CCC/C(C)=C/CC/C(C)=C/CC/C(C)=C/CC/C(C)=C/CC/C(C)=C/CC/C(C)=C/CC1=C(C)C(=O)c2ccccc2C1=O [MK-7],reduction in MK-7 after tableting,up to 30%

# — patent US11090276B2, “Formulation of fat-soluble vitamin” (BASF SE, priority 2014, dated 2021)
